Experiments:
Assay type in all cases: in vivo
[1] = test system: corn (Zea mays); assay: Test G Pre-Emergence Protocol; settings: Zea mays, pre-emergence, 312 h, evaluated after 13 days; for plant injury at 15.625 g/ha: 15.625 g ai/ha; for plant injury at 15.625 g/ha / plant injury at 250 g/ha: read-out: Corn damage rating (100=total damage to plant; 0=no damage to plant); for plant injury at 62.5 g/ha: 62.5 g ai/ha, 100=total damage to plant, 0=no damage to plant, read-out: plant damage rating, Corn; for plant injury at 250 g/ha: 250 g ai/ha
Procedure, shortened: (§1)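 Test compound in 0.5% Tween 20 acetone/water (50:50) was applied at three rates (15.625, 62.5, 250 g/ha) to soil sown one day earlier. After 13 days plants were scored for injury, where 0 means unaffected and 100 means completely damaged.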

[2] = test system: velvetleaf (Abutilon theophrasti); assay: Test G Pre-Emergence Protocol; settings: Abutilon theophrasti, pre-emergence, 312 h, evaluated after 13 days; for pest or weed control at 15.625 g/ha: 15.625 g ai/ha; for pest or weed control at 15.625 g/ha / pest or weed control at 250 g/ha: read-out: Velvetleaf damage rating (100=total damage to plant; 0=no damage to plant); for pest or weed control at 62.5 g/ha: 62.5 g ai/ha, 100=total damage to plant, 0=no damage to plant, read-out: plant damage rating, Velvetleaf; for pest or weed control at 250 g/ha: 250 g ai/ha
Procedure, shortened: as §1

[3] = test system: barnyardgrass (Echinochloa crus-galli); assay: Test G Pre-Emergence Protocol; settings: Echinochloa crus-galli, pre-emergence, 312 h, evaluated after 13 days; for pest or weed control at 15.625 g/ha: 15.625 g ai/ha, read-out: Barnyard grass damage rating (100=total damage to plant; 0=no damage to plant); for pest or weed control at 62.5 g/ha: 62.5 g ai/ha, 100=total damage to plant, 0=no damage to plant, read-out: plant damage rating, Barnyardgrass; for pest or weed control at 250 g/ha: 250 g ai/ha, read-out: Barnyardgrass damage rating (100=total damage to plant; 0=no damage to plant)
Procedure, shortened: as §1

[4] = test system: redroot pigweed (Amaranthus retroflexus); assay: Test G Pre-Emergence Protocol; settings: Amaranthus retroflexus, pre-emergence, 312 h, evaluated after 13 days; for pest or weed control at 15.625 g/ha: 15.625 g ai/ha; for pest or weed control at 15.625 g/ha / pest or weed control at 250 g/ha: read-out: Pigweed, Redroot damage rating (100=total damage to plant; 0=no damage to plant); for pest or weed control at 62.5 g/ha: 62.5 g ai/ha, 100=total damage to plant, 0=no damage to plant, read-out: plant damage rating, Pigweed, Redroot; for pest or weed control at 250 g/ha: 250 g ai/ha
Procedure, shortened: as §1

[5] = test system: giant foxtail (Setaria faberi); assay: Test G Pre-Emergence Protocol; settings: Setaria faberi, pre-emergence, 312 h, evaluated after 13 days; for pest or weed control at 15.625 g/ha: 15.625 g ai/ha; for pest or weed control at 15.625 g/ha / pest or weed control at 250 g/ha: read-out: Foxtail, Giant damage rating (100=total damage to plant; 0=no damage to plant); for pest or weed control at 62.5 g/ha: 62.5 g ai/ha, 100=total damage to plant, 0=no damage to plant, read-out: plant damage rating, Foxtail, Giant; for pest or weed control at 250 g/ha: 250 g ai/ha
Procedure, shortened: as §1

[6] = test system: ivy-leaved morning glory (Ipomoea hederacea); assay: Test G Pre-Emergence Protocol; settings: Ipomoea, pre-emergence, 312 h, evaluated after 13 days; for pest or weed control at 15.625 g/ha: 15.625 g ai/ha, read-out: Morning-glory, Ivy-leaved damage rating (100=total damage to plant; 0=no damage to plant); for pest or weed control at 62.5 g/ha: 62.5 g ai/ha, 100=total damage to plant, 0=no damage to plant, read-out: plant damage rating, Morningglory, Ivy-leaved; for pest or weed control at 250 g/ha: 250 g ai/ha, read-out: Morningglory, Ivy-leaved damage rating (100=total damage to plant; 0=no damage to plant)
Procedure, shortened: as §1

[7] = test system: corn (Zea mays); assay: Test G Post-Emergence Protocol; settings: Zea mays, post-emergence, 312 h; for plant injury at 15.625 g/ha: 15.625 g ai/ha, evaluated after 13 days (100=total damage to plant; 0=no damage to plant), read-out: Corn damage rating; for plant injury at 62.5 g/ha: 62.5 g ai/ha, read-out: Corn damage rating (100=total damage to plant; 0=no damage to plant); for plant injury at 62.5 g/ha / plant injury at 250 g/ha: evaluated after 13 days; for plant injury at 250 g/ha: 250 g ai/ha, read-out: damage to plant, Corn (100=total damage to plant; 0=no damage to plant)
Procedure, shortened: (§2)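 A glasshouse post-emergence test: 8-day-old plants sprayed at 15.625, 62.5 or 250 g/ha, then grown at 24/16 °C day/night with 14 h light and 65% humidity. Damage rated 13 days later, 0–100.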

[8] = test system: velvetleaf (Abutilon theophrasti); assay: Test G Post-Emergence Protocol; settings: Abutilon theophrasti, post-emergence, 312 h; for pest or weed control at 15.625 g/ha: 15.625 g ai/ha, evaluated after 13 days (100=total damage to plant; 0=no damage to plant), read-out: Velvetleaf damage rating; for pest or weed control at 62.5 g/ha: 62.5 g ai/ha, read-out: Velvetleaf damage rating (100=total damage to plant; 0=no damage to plant); for pest or weed control at 62.5 g/ha / pest or weed control at 250 g/ha: evaluated after 13 days; for pest or weed control at 250 g/ha: 250 g ai/ha, read-out: damage to plant, Velvetleaf (100=total damage to plant; 0=no damage to plant)
Procedure, shortened: as §2

[9] = test system: barnyardgrass (Echinochloa crus-galli); assay: Test G Post-Emergence Protocol; settings: Echinochloa crus-galli, post-emergence, 312 h; for pest or weed control at 15.625 g/ha: 15.625 g ai/ha, evaluated after 13 days (100=total damage to plant; 0=no damage to plant), read-out: Barnyardgrass damage rating; for pest or weed control at 62.5 g/ha: 62.5 g ai/ha, read-out: Barnyardgrass damage rating (100=total damage to plant; 0=no damage to plant); for pest or weed control at 62.5 g/ha / pest or weed control at 250 g/ha: evaluated after 13 days; for pest or weed control at 250 g/ha: 250 g ai/ha, read-out: damage to plant, Barnyardgrass (100=total damage to plant; 0=no damage to plant)
Procedure, shortened: as §2

[10] = test system: redroot pigweed (Amaranthus retroflexus); assay: Test G Post-Emergence Protocol; settings: Amaranthus retroflexus, post-emergence, 312 h; for pest or weed control at 15.625 g/ha: 15.625 g ai/ha, evaluated after 13 days (100=total damage to plant; 0=no damage to plant), read-out: Pigweed, Redroot damage rating; for pest or weed control at 62.5 g/ha: 62.5 g ai/ha, read-out: Pigweed, Redroot damage rating (100=total damage to plant; 0=no damage to plant); for pest or weed control at 62.5 g/ha / pest or weed control at 250 g/ha: evaluated after 13 days; for pest or weed control at 250 g/ha: 250 g ai/ha, read-out: damage to plant, Pigweed, Redroot (100=total damage to plant; 0=no damage to plant)
Procedure, shortened: as §2

[11] = test system: giant foxtail (Setaria faberi); assay: Test G Post-Emergence Protocol; settings: Setaria faberi, post-emergence, 312 h; for pest or weed control at 15.625 g/ha: 15.625 g ai/ha, evaluated after 13 days (100=total damage to plant; 0=no damage to plant), read-out: Foxtail, Giant damage rating; for pest or weed control at 62.5 g/ha: 62.5 g ai/ha, read-out: Foxtail, Giant damage rating (100=total damage to plant; 0=no damage to plant); for pest or weed control at 62.5 g/ha / pest or weed control at 250 g/ha: evaluated after 13 days; for pest or weed control at 250 g/ha: 250 g ai/ha, read-out: damage to plant, Foxtail, Giant (100=total damage to plant; 0=no damage to plant)
Procedure, shortened: as §2

[12] = test system: ivy-leaved morning glory (Ipomoea hederacea); assay: Test G Post-Emergence Protocol; settings: Ipomoea, post-emergence, 312 h; for pest or weed control at 15.625 g/ha: 15.625 g ai/ha, evaluated after 13 days (100=total damage to plant; 0=no damage to plant), read-out: Morningglory, Ivy-leaved damage rating; for pest or weed control at 62.5 g/ha: 62.5 g ai/ha, read-out: Morningglory, Ivy-leaved damage rating (100=total damage to plant; 0=no damage to plant); for pest or weed control at 62.5 g/ha / pest or weed control at 250 g/ha: evaluated after 13 days; for pest or weed control at 250 g/ha: 250 g ai/ha, read-out: damage to plant, Morningglory, Ivy-leaved (100=total damage to plant; 0=no damage to plant)
Procedure, shortened: as §2

Structure (SMILES)	plant injury at 15.625 g/ha [1]	plant injury at 62.5 g/ha [1]	plant injury at 250 g/ha [1]	pest or weed control at 15.625 g/ha [2]	pest or weed control at 62.5 g/ha [2]	pest or weed control at 250 g/ha [2]	pest or weed control at 15.625 g/ha [3]	pest or weed control at 62.5 g/ha [3]	pest or weed control at 250 g/ha [3]	pest or weed control at 15.625 g/ha [4]	pest or weed control at 62.5 g/ha [4]	pest or weed control at 250 g/ha [4]	pest or weed control at 15.625 g/ha [5]	pest or weed control at 62.5 g/ha [5]	pest or weed control at 250 g/ha [5]	pest or weed control at 15.625 g/ha [6]	pest or weed control at 62.5 g/ha [6]	pest or weed control at 250 g/ha [6]	plant injury at 15.625 g/ha [7]	plant injury at 62.5 g/ha [7]	other results
CN1C[C@@H](c2ccc(C(F)(F)F)cc2)[C@H](C(=O)Nc2cnccn2)C1=O (racemic) [Compound 1572]	0%	0%	0%	0%	0%	0%	0%	0%	0%	0%	0%	0%	0%	0%	0%	0%	0%	0%	0%	0%	plant injury at 250 g/ha [7]: 0%; pest or weed control at 15.625 g/ha [8]: 0%; pest or weed control at 62.5 g/ha [8]: 0%; pest or weed control at 250 g/ha [8]: 0%; pest or weed control at 15.625 g/ha [9]: 0%; pest or weed control at 62.5 g/ha [9]: 0%; pest or weed control at 250 g/ha [9]: 0%; pest or weed control at 15.625 g/ha [10]: 0%; pest or weed control at 62.5 g/ha [10]: 0%; pest or weed control at 250 g/ha [10]: 20%; pest or weed control at 15.625 g/ha [11]: 0%; pest or weed control at 62.5 g/ha [11]: 0%; pest or weed control at 250 g/ha [11]: 40%; pest or weed control at 15.625 g/ha [12]: 0%; pest or weed control at 62.5 g/ha [12]: 10%; pest or weed control at 250 g/ha [12]: 30%
Cc1cc(Cl)ncc1NC(=O)[C@@H]1C(=O)N(C)C[C@H]1c1ccc(C(F)(F)F)cc1 (racemic) [Compound 1578]	0%	0%	10%	0%	0%	10%	0%	0%	0%	0%	0%	20%	0%	0%	60%	0%	0%	0%	0%	0%	plant injury at 250 g/ha [7]: 10%; pest or weed control at 15.625 g/ha [8]: 20%; pest or weed control at 62.5 g/ha [8]: 10%; pest or weed control at 250 g/ha [8]: 20%; pest or weed control at 15.625 g/ha [9]: 0%; pest or weed control at 62.5 g/ha [9]: 20%; pest or weed control at 250 g/ha [9]: 20%; pest or weed control at 15.625 g/ha [10]: 0%; pest or weed control at 62.5 g/ha [10]: 20%; pest or weed control at 250 g/ha [10]: 30%; pest or weed control at 15.625 g/ha [11]: 0%; pest or weed control at 62.5 g/ha [11]: 10%; pest or weed control at 250 g/ha [11]: 60%; pest or weed control at 15.625 g/ha [12]: 0%; pest or weed control at 62.5 g/ha [12]: 10%; pest or weed control at 250 g/ha [12]: 30%
CN1C[C@H](c2cccc(C(F)F)c2)[C@@H](C(=O)Nc2cccc(F)c2F)C1=O (racemic) [Compound 1588]	40%	60%	80%	0%	10%	20%	80%	90%	90%	0%	40%	70%	70%	80%	90%	20%	0%	80%	60%	80%	plant injury at 250 g/ha [7]: 80%; pest or weed control at 15.625 g/ha [8]: 0%; pest or weed control at 62.5 g/ha [8]: 0%; pest or weed control at 250 g/ha [8]: 40%; pest or weed control at 15.625 g/ha [9]: 80%; pest or weed control at 62.5 g/ha [9]: 80%; pest or weed control at 250 g/ha [9]: 80%; pest or weed control at 15.625 g/ha [10]: 0%; pest or weed control at 62.5 g/ha [10]: 0%; pest or weed control at 250 g/ha [10]: 20%; pest or weed control at 15.625 g/ha [11]: 60%; pest or weed control at 62.5 g/ha [11]: 70%; pest or weed control at 250 g/ha [11]: 70%; pest or weed control at 15.625 g/ha [12]: 70%; pest or weed control at 62.5 g/ha [12]: 20%; pest or weed control at 250 g/ha [12]: 50%

— patent US12077503B2, “Substituted cyclic amides and their use as herbicides” (FMC CORPORATION, priority 2015, dated 2024)
